Values quoted from earlier work, collected in patent US20130292614A1, “F[…] AS […]” (3M INNOVATIVE PROPERTIES COMPANY, priority 2011, published 2013).

Conditions: inhalation; 2.5 to 3 hour; cited from earlier work

FC(F)(F)C1(F)OC1(F)F (stereo not shown) [C3 perfluorooxirane]
acute lethal concentration (ALC): 200 ppm
